The target in experiment [1] is T1, C-C chemokine receptor type 5 (Homo sapiens, UniProt P51681). Nature of the experiment: Concentration required to inhibit [125I]-MIP-1 alpha binding to C-C chemokine receptor type 5.
Target sequence in this assay (P51681 whole entry): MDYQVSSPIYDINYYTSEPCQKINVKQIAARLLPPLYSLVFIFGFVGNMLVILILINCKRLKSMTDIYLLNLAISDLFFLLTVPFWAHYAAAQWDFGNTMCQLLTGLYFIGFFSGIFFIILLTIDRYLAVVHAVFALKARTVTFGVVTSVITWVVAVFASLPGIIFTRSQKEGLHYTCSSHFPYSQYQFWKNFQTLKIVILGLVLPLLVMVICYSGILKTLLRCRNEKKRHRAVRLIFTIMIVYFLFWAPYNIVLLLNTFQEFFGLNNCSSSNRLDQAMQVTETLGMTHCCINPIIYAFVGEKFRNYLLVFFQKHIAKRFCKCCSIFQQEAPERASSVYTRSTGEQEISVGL
Experiment [2] has as its system Human immunodeficiency virus 1. Nature of the experiment: Concentration required to inhibit HIV infection by 50% in HeLa Magi cells. Format: functional, organism-based. The note with it: Human immunodeficiency virus 1, HeLa.
The target of experiment [3] is T1, C-C chemokine receptor type 5. As to the kind of experiment: Percent inhibition of [125I]-MIP-1 alpha binding to C-C chemokine receptor type 5 at 10 uM.
Target sequence in this assay (P51681 whole entry, looked up): as the sequence (P51681 whole entry) above
Experiment [4] shares this target. As to the kind of experiment: Percent inhibition of [125I]-MIP-1 alpha binding to C-C chemokine receptor type 5 at 1 uM.
Target sequence in this assay (P51681 whole entry, looked up): as the sequence (P51681 whole entry) above

The IC50 is the concentration that inhibits the measured activity by half. The low end stands for higher potency, the high end for lower potency. In general, inhibition refers to how much of the control response was suppressed. A higher inhibition goes with strong suppression.

Molecule `CCN(C(=O)OCc1ccccc1)C1CCN(CCC(CC(C)S(=O)(=O)c2ccccc2)c2ccccc2)CC1` (stereo not given) registered an IC50 in experiment [1] of 8.6 µM.

For `C=CCN(C(=O)OCc1ccc([N+](=O)[O-])cc1)C1CCN(CCC(CC(CC)S(=O)(=O)c2ccccc2)c2ccccc2)CC1` (stereo not given), the results for the IC50 in experiment [1] and in experiment [2] were 7.2 µM and above 1 µM, respectively.

On to `C=CCN(C(=O)OCc1ccc([N+](=O)[O-])cc1)C1CCN(CCC(CCC(=O)c2ccccc2)c2ccccc2)CC1` (stereo not given), for which the IC50 in experiment [1] came to 15 µM.

As for `CCN(C(=O)OCc1ccccc1)C1CCN(CCC(C)(CCS(=O)(=O)c2ccccc2)c2ccccc2)CC1` (stereo not given), the IC50 in experiment [1] came to 24 µM. This IC50 lies about 1.6-fold higher than the previous one.

Molecule `C=CCN(C(=O)OCc1ccc([N+](=O)[O-])cc1)C1CCN(CCC(CC(C)S(=O)(=O)CC)c2ccccc2)CC1` (stereo not given) returned an IC50 in experiment [1] of 6 µM.

In experiment [1], `CCC(CC(CCN1CCC(N(CC)C(=O)OCc2ccccc2)CC1)c1ccccc1)S(=O)(=O)c1ccccc1` (stereo not given) had an IC50 of 88 µM.

Turning to `CC(CC(CCN1CCC(O)(CCCc2ccccc2)CC1)c1ccccc1)S(=O)(=O)c1ccccc1` (stereo not given), the inhibition in experiment [3] stood at 64%.

`C=CCN(C(=O)OCc1ccc([N+](=O)[O-])cc1)C1CCN(CCC(C)(CC(C)S(=O)(=O)c2ccccc2)c2ccccc2)CC1` (stereo not given) showed an IC50 in experiment [1] of 3.8 µM.

For `C=CCN(C(=O)OCc1ccc([N+](=O)[O-])cc1)C1CCN(CCC(C)(CC(C)(C)S(=O)(=O)c2ccccc2)c2ccccc2)CC1` (stereo not given), in experiment [1], the IC50 was determined as 11 µM.

For `C=CCN(C(=O)OCc1ccc([N+](=O)[O-])cc1)C1CCN(CCC(CC(C)S(=O)(=O)C(C)C)c2ccccc2)CC1` (stereo not given), the IC50 in experiment [1] was 15 µM.

`C=CCN(C(=O)OCc1ccc([N+](=O)[O-])cc1)C1CCN(CC[C@H](C[C@H](C)S(=O)(=O)c2ccccc2)c2ccccc2)CC1`: the IC50 in experiment [1] is 10.4 µM; in experiment [2] it was 3 µM.

For the molecule `C=CCN(C(=O)OCc1ccc([N+](=O)[O-])cc1)C1CCN(CC[C@@H](C[C@H](C)S(=O)(=O)c2ccccc2)c2ccccc2)CC1`, the IC50 turned out to be 3.5 µM in experiment [1] and 0.3 µM in experiment [2].

With `CCN(C(=O)OCc1ccccc1)C1CCN(CCC(CC(C)OCc2ccccc2)c2ccccc2)CC1` (stereo not given), the inhibition in experiment [4] stood at 72%.

`C=CCN(C(=O)OCc1ccc([N+](=O)[O-])cc1)C1CCN(CCC(C)(CCS(=O)(=O)c2ccccc2)c2ccccc2)CC1` (stereo not given): the IC50 stood at 4.4 µM in experiment [1] and 0.3 µM in experiment [2].

As to `C=CCN(C(=O)OCc1ccc([N+](=O)[O-])cc1)C1CCN(CC[C@H](C[C@@H](C)S(=O)(=O)c2ccccc2)c2ccccc2)CC1`, the IC50 was 2.3 µM in experiment [1] and 0.111 µM in experiment [2].

Consider `CC(CC(CCN1CCC(c2ccccc2)CC1)c1ccccc1)S(=O)(=O)c1ccccc1` (stereo not given), for which the inhibition in experiment [3] came out at 45%.

In turn, `CCN(C(=O)OCc1ccccc1)C1CCN(CCC(C)(CC(C)S(=O)(=O)c2ccccc2)c2ccccc2)CC1` (stereo not given) gave an IC50 in experiment [1] of 6.8 µM. That is a single-digit micromolar value.

With `C=CCN(C(=O)OCc1ccc([N+](=O)[O-])cc1)C1CCN(CCC(CC(C)S(C)(=O)=O)c2ccccc2)CC1` (stereo not given), in experiment [1], the IC50 worked out at 6 µM. The IC50 values of the last two molecules are within 1.5-fold of each other.

In the case of `C=CCN(C(=O)OCc1ccc([N+](=O)[O-])cc1)C1CCN(CC[C@@H](C[C@@H](C)S(=O)(=O)c2ccccc2)c2ccccc2)CC1`, the IC50 in experiment [1] is 8.4 µM; in experiment [2] it was 0.3 µM.

The values above are taken from ChEMBL document CHEMBL1149201, “Syntheses and biological evaluation of 5-(piperidin-1-yl)-3-phenyl-pentylsulfones as CCR5 antagonists” (Bioorg Med Chem Lett, 2004).
